Measured values reported in patent publication US9113629B2, “4-amino-6-(4-substituted-phenyl)-picolinates and 6-amino-2-(4-substituted-phenyl)-pyrimidine-4-carboxylates and their use as herbicides” (DOW AGROSCIENCES LLC, priority 2013, dated 2015).
Like-named read-outs stand apart in the source and are kept apart here.

Legend:
[1] = tested on: Key Broadleaf Weed and Crop Species; test: Post-emergent Test II herbicidal activity (Table 5); assay type: in vivo; conditions: post-emergence, 336 h, 14 days after application; for pest or weed control at 70 g/ha: application rate 70 g ai/ha; for pest or weed control at 140 g/ha: application rate 140 g ai/ha
In short: (§1)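 Spray rates: a highest rate plus ½×, ¼×, ⅛×, 1/16×, all delivered at 187 L/ha to plants at the first–second true leaf stage. Readout is a visual percent injury score at 14 d, where 100 means complete kill.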

[2] = tested on: Key Grass and Sedge Weeds as well as Grass Crops; test: Post-emergent Test II herbicidal activity (Table 6); assay type: in vivo; conditions: post-emergence, 336 h; for pest or weed control at 70 g/ha: 70 g ai/ha; for pest or weed control at 140 g/ha: 140 g ai/ha
In short: as §1

[3] = ABUTH: velvetleaf (Abutilon theophrasti), read-out: Visual Growth Reduction (%) 14 Days After Application, ABUTH
[4] = AMARE: redroot pigweed (Amaranthus retroflexus), read-out: Visual Growth Reduction (%) 14 Days After Application, AMARE
[5] = BRSNN: oilseed-rape, canola (Brassica napus), read-out: Visual Growth Reduction (%) 14 Days After Application, BRSNN
[6] = CHEAL: lambsquarters (Chenopodium album), read-out: Visual Growth Reduction (%) 14 Days After Application, CHEAL
[7] = EPHHL: wild poinsettia (Euphorbia heterophylla), read-out: Visual Growth Reduction (%) 14 Days After Application, EPHHL
[8] = HELAN: sunflower (Helianthus annuus), read-out: Visual Growth Reduction (%) 14 Days After Application, HELAN
[9] = VIOTR: wild pansy (Viola tricolor), read-out: Visual Growth Reduction (%) 14 Days After Application, VIOTR
[10] = CYPES: yellow nutsedge (Cyperus esculentus), read-out: Visual Growth Reduction (%) 14 Days After Application, CYPES
[11] = DIGSA: crabgrass (Digitaria sanguinalis), read-out: Visual Growth Reduction (%) 14 Days After Application, DIGSA
[12] = ECHCG: barnyardgrass (Echinochloa crus-galli), read-out: Visual Growth Reduction (%) 14 Days After Application, ECHCG
[13] = ORYSA: rice (Oryza sativa), crop, read-out: Visual Growth Reduction (%) 14 Days After Application, ORYSA
[14] = SETFA: giant foxtail (Setaria faberi), read-out: Visual Growth Reduction (%) 14 Days After Application, SETFA
[15] = SORVU: grain sorghum (Sorghum vulgare), read-out: Visual Growth Reduction (%) 14 Days After Application, SORVU
[16] = TRZSS (wheat, Triticum aestivum), crop, read-out: Visual Growth Reduction (%) 14 Days After Application, TRZSS
[17] = ZEAMX: maize, corn (Zea mays), crop, read-out: Visual Growth Reduction (%) 14 Days After Application, ZEAMX

Structure (SMILES) | pest or weed control at 70 g/ha [1, 3] | pest or weed control at 140 g/ha [1, 3] | pest or weed control at 70 g/ha [1, 4] | pest or weed control at 140 g/ha [1, 4] | pest or weed control at 70 g/ha [1, 5] | pest or weed control at 140 g/ha [1, 5] | pest or weed control at 70 g/ha [1, 6] | pest or weed control at 140 g/ha [1, 6] | pest or weed control at 70 g/ha [1, 7] | pest or weed control at 140 g/ha [1, 7] | pest or weed control at 70 g/ha [1, 8] | pest or weed control at 140 g/ha [1, 8] | pest or weed control at 70 g/ha [1, 9] | pest or weed control at 140 g/ha [1, 9] | pest or weed control at 70 g/ha [2, 10] | pest or weed control at 140 g/ha [2, 10] | pest or weed control at 70 g/ha [2, 11] | pest or weed control at 140 g/ha [2, 11] | pest or weed control at 70 g/ha [2, 12] | pest or weed control at 140 g/ha [2, 12] | further results
Nc1cc(-c2ccc(Br)cc2)nc(C(=O)O)c1Cl [Compound 168] | 95 to 100% | 95 to 100% | 95 to 100% | 95 to 100% | 95 to 100% | 95 to 100% | 95 to 100% | 95 to 100% | 95 to 100% | 95 to 100% | 95 to 100% | 95 to 100% | 0 to 29% | 30 to 44% | 95 to 100% | 95 to 100% | 75 to 84% | 75 to 84% | 95 to 100% | 95 to 100% | pest or weed control at 70 g/ha [2, 13]: 0 to 29%; pest or weed control at 140 g/ha [2, 13]: 0 to 29%; pest or weed control at 70 g/ha [2, 14]: 95 to 100%; pest or weed control at 140 g/ha [2, 14]: 95 to 100%; pest or weed control at 70 g/ha [2, 15]: 95 to 100%; pest or weed control at 140 g/ha [2, 15]: 95 to 100%; pest or weed control at 70 g/ha [2, 16]: 60 to 74%; pest or weed control at 140 g/ha [2, 16]: 60 to 74%; pest or weed control at 70 g/ha [2, 17]: 95 to 100%; pest or weed control at 140 g/ha [2, 17]: 95 to 100%
COC(=O)c1nc(-c2ccc(Br)cc2)cc(N)c1Cl [Compound 67] | 95 to 100% | 95 to 100% | 95 to 100% | 95 to 100% | 0 to 29% | 60 to 74% | 95 to 100% | 95 to 100% | 95 to 100% | 95 to 100% | 85 to 94% | 95 to 100% | 0 to 29% | 0 to 29% | 95 to 100% | 95 to 100% | 60 to 74% | 75 to 84% | 85 to 94% | 95 to 100% | pest or weed control at 70 g/ha [2, 13]: 0 to 29%; pest or weed control at 140 g/ha [2, 13]: 0 to 29%; pest or weed control at 70 g/ha [2, 14]: 0 to 29%; pest or weed control at 140 g/ha [2, 14]: 0 to 29%; pest or weed control at 70 g/ha [2, 15]: 85 to 94%; pest or weed control at 140 g/ha [2, 15]: 85 to 94%; pest or weed control at 70 g/ha [2, 16]: 0 to 29%; pest or weed control at 140 g/ha [2, 16]: 0 to 29%; pest or weed control at 70 g/ha [2, 17]: 0 to 29%; pest or weed control at 140 g/ha [2, 17]: 45 to 59%
Nc1cc(-c2ccc(I)cc2)nc(C(=O)O)c1Cl [Compound 4] | 95 to 100% | 95 to 100% | 85 to 94% | 85 to 94% | 95 to 100% | 95 to 100% | 95 to 100% | 95 to 100% | 95 to 100% | 95 to 100% | 75 to 84% | 85 to 94% | 0 to 29% | 0 to 29% | 45 to 59% | 95 to 100% | 60 to 74% | 75 to 84% | 75 to 84% | 85 to 94% | pest or weed control at 70 g/ha [2, 13]: 0 to 29%; pest or weed control at 140 g/ha [2, 13]: 0 to 29%; pest or weed control at 70 g/ha [2, 14]: 60 to 74%; pest or weed control at 140 g/ha [2, 14]: 60 to 74%; pest or weed control at 70 g/ha [2, 15]: 75 to 84%; pest or weed control at 140 g/ha [2, 15]: 75 to 84%; pest or weed control at 70 g/ha [2, 16]: 75 to 84%; pest or weed control at 140 g/ha [2, 16]: 75 to 84%; pest or weed control at 70 g/ha [2, 17]: 0 to 29%; pest or weed control at 140 g/ha [2, 17]: 0 to 29%
